Source: patent publication US20090233957A1, “(-)-BELOXEPIN AND METHODS FOR ITS SYNTHESIS AND USE” (priority 2008, published 2009)

How the values were obtained:
[1] = biological target: T1, cloned human NE transporter (hNET) (Homo sapiens, UniProt P23975); experiment: NE transporter binding assay, [3H]nisoxetine
T1 construct: expressed in transfected cells; host or cells: CHO cells
Procedure: Protocols. For the NE transporter binding assay, [^3H]nisoxetine (1.0 nM) was incubated with various concentrations of test compounds for 2 hours at 4° C. with membranes prepared from Chinese hamster ovary cells (CHO) cells heterologously expressing the cloned human NE transporter (hNET). Bound radioactivity was determined by scintillation spectroscopy.

[2] = biological target: T2, cloned human 5HT2C receptor (Homo sapiens, UniProt P28335); experiment: 5HT2C receptor binding assay, [3H]mesulergine; conditions: CHO membranes
T2 construct: expressed in transfected cells; host or cells: CHO cells
T2 sequence (P28335 33-458): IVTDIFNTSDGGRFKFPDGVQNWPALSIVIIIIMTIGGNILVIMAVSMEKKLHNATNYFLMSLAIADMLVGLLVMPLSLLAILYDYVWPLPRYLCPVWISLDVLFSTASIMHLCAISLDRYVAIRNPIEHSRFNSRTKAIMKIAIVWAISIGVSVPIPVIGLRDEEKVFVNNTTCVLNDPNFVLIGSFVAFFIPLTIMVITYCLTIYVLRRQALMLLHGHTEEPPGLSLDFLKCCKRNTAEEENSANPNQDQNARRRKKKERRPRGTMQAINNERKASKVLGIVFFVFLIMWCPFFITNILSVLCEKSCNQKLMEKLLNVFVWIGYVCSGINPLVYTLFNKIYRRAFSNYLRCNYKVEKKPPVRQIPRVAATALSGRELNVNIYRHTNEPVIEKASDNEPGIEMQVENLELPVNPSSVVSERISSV
Procedure: For the 5HT2C receptor binding assay, [^3H]mesulergine (1.0 nM) was incubated for 60 min at 37° C. with membranes prepared from Chinese hamster ovary cells heterologously expressing the cloned human 5-HT2C receptor according to the method of Stam et al., 1994, Eur. J. Pharmacol. 269:339-348. Various concentrations of test compound were added and bound radioactivity was determined by scintillation counting. Non-specific binding was determined in the presence of 10 μM RS102221. The Ki value for the test compound was determined using standard methods.

[3] = biological target: T3, cloned human 5HT2A receptor (Homo sapiens, UniProt P28223); experiment: 5HT2A receptor binding assay, [3H]ketanserin; conditions: HEK-293 membranes
T3 construct: expressed in transfected cells; host or cells: HEK-293 cells
T3 sequence (P28223 whole entry): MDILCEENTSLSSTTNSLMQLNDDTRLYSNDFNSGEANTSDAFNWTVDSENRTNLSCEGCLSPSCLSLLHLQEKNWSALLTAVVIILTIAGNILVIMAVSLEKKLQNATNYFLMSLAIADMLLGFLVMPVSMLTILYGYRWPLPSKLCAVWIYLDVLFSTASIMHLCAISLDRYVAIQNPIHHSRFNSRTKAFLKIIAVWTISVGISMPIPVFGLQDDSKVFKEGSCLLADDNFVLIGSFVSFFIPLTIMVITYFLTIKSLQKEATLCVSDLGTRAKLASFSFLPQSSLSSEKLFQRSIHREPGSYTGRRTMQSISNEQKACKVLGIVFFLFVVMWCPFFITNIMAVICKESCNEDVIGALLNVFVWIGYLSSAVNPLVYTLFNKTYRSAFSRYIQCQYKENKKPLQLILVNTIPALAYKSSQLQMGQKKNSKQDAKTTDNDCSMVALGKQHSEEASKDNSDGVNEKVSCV
Procedure: For the 5HT2A receptor binding assay, [^3H]ketanserin (0.5 nM) was incubated for 60 min at 22° C. with membranes prepared from HEK-293 cells heterologously expressing the cloned human 5-HT2A receptor according to the method of Bonhaus et al., 1995, Brit. J. Pharmacol. 115:622-628. Various concentrations of test compound were added and bound radioactivity was determined by scintillation counting. Non-specific binding was determined in the presence of 1.0 μM unlabeled ketanserin. The Ki value for the test compound was determined using standard methods.

[4] = test system: rat hindpaw incision model; experiment: rat hindpaw incisional pain model, tactile allodynia; assay type: in vivo; conditions: 30 mg/kg IP, 24 hours post-surgery
Procedure: Protocol. A time course experiment was also performed with (−)-beloxepin in the hindpaw incision model. At 24 hours post-surgery, rats received vehicle or (−)-beloxepin (30 mg/kg IP). Rats were tested for tactile allodynia at 30, 60, 120 and 240 minutes after administration of (−)-beloxepin.
Protocol. Another time course experiment was performed with (+)-beloxepin in the hindpaw incision model. At 24 hours post-surgery, rats received vehicle or (+)-beloxepin (30 mg/kg IP). Rats were tested for tactile allodynia at 30, 60, 120 and 240 minutes after administration of (+)-beloxepin.

L5 SNL rats = experiment: L5 Single Nerve Ligation model of neuropathic pain, tactile allodynia (von Frey); assay type: in vivo, rat
Procedure: Protocol. The antiallodynic activity of (−)-beloxepin was tested in vivo using the L5—Single Nerve Ligation model of non-nociceptive neuropathic pain as described in LaBuda & Little, 2005, J. Neurosci. Methods 144:175-181. The test animals were placed in a Plexiglas chamber (10 cm×20 cm×25 cm) and habituated for 15 minutes. The chamber was positioned on top of a mesh screen so that von Frey monofilaments could be presented to the plantar surface of both hindpaws. Measurement of tactile sensitivity for each hind paw were obtained using the up/down method (Dixon, 1980, Annu. Rev. Pharmacol. Toxicol. 20:441-462) with seven Frey monofilaments (0.4, 1, 2, 4, 6, 8 and 15 grams). Each trial started with a von Frey force of 2 grams delivered to the right hind paw for approximately 1-2 seconds and then the left hind paw. If there was no withdrawal response, the next higher force was delivered. If there was a response, the next lower force was delivered. This procedure was performed until no response was made at the highest force (15 grams) or until four stimuli were administered following the initial response. The 50% paw withdrawal threshold for each paw was calculated using the following formula: [Xth]log=[vFr]log+ky, where [vFr] is the force of the last von Frey used, k=0.2249 which is the average interval (in log units) between the von Frey monofilaments, and y is a value that depends upon the pattern of withdrawal responses (Dixon, 1980, supra). […] Testing for tactile sensitivity was performed twice and the mean 50% withdrawal value assigned as the tactile sensitivity for the right and left paws for each animal.
Results. The antiallodynic effects produced by (−)-beloxepin (30 mg/kg IP) and (+)-beloxepin (30 mg/kg IP) in L5 SNL rats 8 days post surgery are illustrated in FIG. 1. In this experiment, at 8 days post surgery, rats were treated with vehicle or beloxepin enantiomers (30 mg/kg IP) and tested for tactile allodynia at 30 min post treatment. […] No side effects were observed following treatment with either enantiomer.
The antiallodynic effects produced by (−)-beloxepin (30 mg/kg IP) in L5 SNL rats 14 days post surgery are illustrated in FIG. 2. In this experiment, at 14 days post surgery, rats were treated with vehicle or (−)-beloxepin and tested for tactile allodynia at 30, 60, 120 and 240 min post treatment. Vehicle treated rats were tested at 30 min post treatment.
Protocol. A time course experiment was performed with (−)-beloxepin (60 mg/kg PO) in L5 SNL rats at 7 days post-surgery. Rats were tested at 30, 60, 120, and 240 minutes post-drug.
Protocol. A time course experiment was also performed with (+)-beloxepin (60 mg/kg PO) in L5 SNL rats at 14 days post-surgery. Rats were tested at 30, 60, 120, and 240 minutes post-drug.

[5] = test system: rat 50° C. hot plate model; experiment: rat 50° C. hot plate assay; assay type: in vivo; conditions: for level of antinociception, positive control: 3 mg/kg SC, 30 min
Procedure: Protocol. Rats were treated with vehicle, 30 mg/kg IP of (−)-beloxepin, or 30 mg/kg IP of (+)-beloxepin and then were placed on a hot plate (50° C.) 30, 60, or 120 minutes after administration of the vehicle or beloxepin enantiomer. Rats treated with 3 mg/kg SC of morphine and tested 30 min post-treatment were used as a positive control in these experiments.

human recombinant CYP2D6 = biological target: T4, human recombinant CYP2D6 (Homo sapiens, UniProt P10635); experiment: CYP2D6 inhibition, MAMC substrate; assay type: in vitro ADME
T4 construct: purchased BD Bioscience
T4 sequence (P10635 whole entry): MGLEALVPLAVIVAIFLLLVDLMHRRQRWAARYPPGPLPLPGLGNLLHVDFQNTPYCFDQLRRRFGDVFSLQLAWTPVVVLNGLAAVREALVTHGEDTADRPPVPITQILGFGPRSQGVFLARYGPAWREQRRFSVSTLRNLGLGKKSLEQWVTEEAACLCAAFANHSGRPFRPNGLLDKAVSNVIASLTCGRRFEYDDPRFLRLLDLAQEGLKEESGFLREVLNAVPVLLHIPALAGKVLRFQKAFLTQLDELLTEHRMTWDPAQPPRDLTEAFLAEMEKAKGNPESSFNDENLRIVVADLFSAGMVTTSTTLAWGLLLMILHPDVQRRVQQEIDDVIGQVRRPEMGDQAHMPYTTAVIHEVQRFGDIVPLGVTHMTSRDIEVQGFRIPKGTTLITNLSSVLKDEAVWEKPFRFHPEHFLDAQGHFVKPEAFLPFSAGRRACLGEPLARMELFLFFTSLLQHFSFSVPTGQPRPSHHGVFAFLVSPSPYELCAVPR
Procedure: Protocol. […] The source of the enzyme was microsomes containing human recombinant CYP2D6 obtained from BD Bioscience. Conversion of MAMC to 7-hydroxy-4-(aminomethyl)coumarin was measured using a PerkinElmer Fusion with a 390 nm excitation filter and a 460 nm emission filter.

[6] = biological target: T5, cloned human 5HT2B receptor (Homo sapiens, UniProt P41595); experiment: 5HT2B receptor binding assay, [125I]DOI; conditions: CHO membranes
T5 construct: expressed in transfected cells; host or cells: CHO cells
T5 sequence (P41595 whole entry): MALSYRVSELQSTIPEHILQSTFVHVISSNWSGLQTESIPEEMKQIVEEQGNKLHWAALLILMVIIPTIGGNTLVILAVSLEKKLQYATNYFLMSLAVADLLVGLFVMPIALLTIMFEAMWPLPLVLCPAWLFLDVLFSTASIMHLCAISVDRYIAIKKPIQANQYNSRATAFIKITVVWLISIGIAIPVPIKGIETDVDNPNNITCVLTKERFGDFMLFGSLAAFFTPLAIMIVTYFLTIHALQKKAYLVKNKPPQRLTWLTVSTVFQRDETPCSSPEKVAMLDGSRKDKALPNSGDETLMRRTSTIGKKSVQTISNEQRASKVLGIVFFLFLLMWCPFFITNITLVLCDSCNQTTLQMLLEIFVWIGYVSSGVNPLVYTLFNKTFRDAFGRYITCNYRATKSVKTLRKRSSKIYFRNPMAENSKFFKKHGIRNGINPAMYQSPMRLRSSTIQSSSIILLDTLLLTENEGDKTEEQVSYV
Procedure: For the 5HT2B receptor binding assay, [^125I](±)[…] (DOI) (0.2 nM) was incubated for 15 min at 37° C. with membranes prepared from Chinese hamster ovary cells heterologously expressing the cloned human 5HT2B receptor according to the method of Choi et al., 1994, FEBS Lett 352:393-399. Various concentrations of test compound were added and bound radioactivity was determined by scintillation counting. Non-specific binding was determined in the presence of 1.0 μM unlabeled DOI. The Ki value for the test compound was determined using standard methods.

[7] = test system: pain intensity in study completers; conditions: cited from earlier work
[8] = 30 mg/kg IP, 8 days post surgery, 30 min post treatment

T1 sequence (P23975 whole entry): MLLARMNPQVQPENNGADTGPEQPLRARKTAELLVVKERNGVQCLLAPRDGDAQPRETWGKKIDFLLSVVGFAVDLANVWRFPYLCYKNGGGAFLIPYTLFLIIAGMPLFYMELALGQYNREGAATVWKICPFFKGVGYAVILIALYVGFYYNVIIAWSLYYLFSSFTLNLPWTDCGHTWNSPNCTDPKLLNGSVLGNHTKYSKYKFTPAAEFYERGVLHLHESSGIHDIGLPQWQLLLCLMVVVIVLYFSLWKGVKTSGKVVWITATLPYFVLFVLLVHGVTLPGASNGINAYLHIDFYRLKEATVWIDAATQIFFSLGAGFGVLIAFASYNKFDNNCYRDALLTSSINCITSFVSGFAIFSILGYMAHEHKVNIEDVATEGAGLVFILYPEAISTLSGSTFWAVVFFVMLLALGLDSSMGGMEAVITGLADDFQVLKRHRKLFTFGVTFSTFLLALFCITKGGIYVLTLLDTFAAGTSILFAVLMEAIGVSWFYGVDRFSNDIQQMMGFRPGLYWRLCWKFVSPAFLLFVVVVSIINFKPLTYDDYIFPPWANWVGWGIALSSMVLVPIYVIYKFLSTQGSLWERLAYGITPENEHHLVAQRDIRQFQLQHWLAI

Cc1cccc2c1Oc1ccccc1C1(O)CCN(C)CC21 (single isomer, unassigned; (-)) [(−)-beloxepin]
higher affinity at the NET than the (+) enantiomer ([1]; (−) vs (+) enantiomer): approximately 8 fold | Ki ([1]; membranes of CHO cells expressing hNET, read-out: NET Ki): 0.39 µM | Ki [2]: > 10 µM | Ki [3]: > 10 µM | hindpaw withdrawal threshold, % of the threshold value for vehicle treated rats ([4]; 30 minute time point): 426% | maximum hindpaw withdrawal threshold ([4]; 30 minute time point): ~19 grams | antiallodynic effect ([4]; tested 30, 60, 120, 240 min): significant antiallodynic effect at the 30 and 120 minute time point | antiallodynia, % of the threshold of vehicle-treated L5 SNL rats (L5 SNL rats; [8]): 444% | antiallodynic effect (L5 SNL rats; [8]): significant antiallodynia | maximal efficacy, % of the threshold of vehicle-treated rats (L5 SNL rats; 30 mg/kg IP, 14 days post surgery): 635% | antiallodynic effect (L5 SNL rats; 30 mg/kg IP, 14 days post surgery, tested 30, 60, 120, 240 min): significant antiallodynic effects at the 30 and 60 min time points | antiallodynic effect (L5 SNL rats; 60 mg/kg PO, 7 days post-surgery, tested 30, 60, 120, 240 min): significant antiallodynic effects at the 60 and 120 minute time points | antinociceptive activity ([5]; 30 mg/kg IP, 30, 60, 120 min): robust antinociceptive activity at 30, 60, and 120 minutes after treatment | peak antinociception ([5]; 30 mg/kg IP, 30 min post-treatment): 79±10 % MPE | IC50 (human recombinant CYP2D6): 4.37 µM | Ki [6]: > 10 µM

CNCCCC12CCC(c3ccccc31)c1ccccc12 [maprotiline]
reduction in pain intensity [7]: 45%

CN1CC[C@]23c4c5ccc(O)c4O[C@H]2[C@@H](O)C=C[C@H]3[C@H]1C5 [morphine, reference compound]
level of antinociception, positive control ([5]; 'in these experiments'): 61±7 % MPE | level of antinociception, positive control ([5]; (+)-beloxepin experiment (FIG. 8)): 85±7 % MPE | level of antinociception, positive control ([5]; (−)-beloxepin experiment (FIG. 7)): 65±11 % MPE

Fc1ccc([C@@H]2CCNC[C@H]2COc2ccc3c(c2)OCO3)cc1 [paroxetine]
reduction in pain intensity [7]: 26%
